In patent publication US20220119354A1, “DIAMINO-SUBSTITUTED PYRIDINES AND PYRIMIDINES AS HERBICIDES” (FMC Corporation, priority 2019, published 2022):

Experiments:
Assay type in all cases: in vivo
[1] = tested on: corn (Zea mays); assay: Test A postemergence, corn; conditions: 0 to 100 scale
In short: (§1)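 Visual injury scored against untreated controls about 10 d after treatment, scale 0 = no effect to 100 = complete control. Compounds, formulated with surfactant in a non-phytotoxic solvent, went on as directed soil spray preemergence or onto 2–10 cm, one- to two-leaf plants postemergence; loam–sand soil, greenhouse.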

[2] = tested on: ragweed (common ragweed, Ambrosia elatior); assay: Test A postemergence, ragweed; conditions: 0 to 100 scale
In short: as §1

[3] = tested on: kochia (Kochia scoparia); assay: Test A postemergence, kochia; conditions: 0 to 100 scale
In short: as §1

[4] = tested on: ryegrass, Italian (Lolium multiflorum); assay: Test A preemergence, Italian ryegrass; conditions: 0 to 100 scale; for Ryegrass, Italian plant response rating: 0 is no effect, 100 is complete control
In short: as §1

[5] = tested on: blackgrass (Alopecurus myosuroides); assay: Test A postemergence, blackgrass; conditions: 0 to 100 scale
In short: as §1

[6] = tested on: sedge, umbrella (small-flower umbrella sedge, Cyperus difformis); assay: Test B flooded paddy test, umbrella sedge; conditions: Flood, 250 g ai/ha, applied to paddy water, 2-leaf stage, visual evaluation after 13 to 15 d
In short: (§2)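 Pots flooded to 3 cm above the soil when treated, with test compound added straight to the water and the flood maintained. Treated plants were at the 2-leaf stage and stayed 13–15 d in greenhouse. Response versus untreated controls scored visually from 0 (no effect) to 100 (complete control).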

[7] = tested on: rice (Oryza sativa); assay: Test B flooded paddy test, rice; conditions: Flood, 250 g ai/ha, applied to paddy water, 2-leaf stage, visual evaluation after 13 to 15 d
In short: as §2

[8] = tested on: pigweed (Amaranthus retroflexus); assay: Test A preemergence, pigweed; conditions: 0 to 100 scale; for Pigweed plant response rating: 0 is no effect, 100 is complete control
In short: as §1

[9] = tested on: pigweed (Amaranthus retroflexus); assay: Test A postemergence, pigweed; conditions: 0 to 100 scale
In short: as §1

[10] = tested on: wheat (Triticum aestivum); assay: Test A postemergence, wheat; conditions: 0 to 100 scale
In short: as §1

[11] = tested on: foxtail, giant (Setaria faberii); assay: Test A postemergence, giant foxtail; conditions: 0 to 100 scale
In short: as §1

[12] = tested on: ragweed (common ragweed, Ambrosia elatior); assay: Test A preemergence, ragweed; conditions: 0 to 100 scale; for Ragweed plant response rating: 0 is no effect, 100 is complete control
In short: as §1

[13] = tested on: kochia (Kochia scoparia); assay: Test A preemergence, kochia; conditions: 0 to 100 scale; for Kochia plant response rating: 0 is no effect, 100 is complete control
In short: as §1

[14] = tested on: ryegrass, Italian (Lolium multiflorum); assay: Test A postemergence, Italian ryegrass; conditions: 0 to 100 scale
In short: as §1

[15] = tested on: barnyardgrass (Echinochloa crus-galli); assay: Test A postemergence, barnyardgrass; conditions: 0 to 100 scale
In short: as §1

[16] = tested on: barnyardgrass (Echinochloa crus-galli); assay: Test B flooded paddy test, barnyardgrass; conditions: Flood, 250 g ai/ha, applied to paddy water, 2-leaf stage, visual evaluation after 13 to 15 d
In short: as §2

[17] = tested on: barnyardgrass (Echinochloa crus-galli); assay: Test A preemergence, barnyardgrass; conditions: 0 to 100 scale; for Barnyardgrass plant response rating: 0 is no effect, 100 is complete control
In short: as §1

[18] = tested on: galium (catchweed bedstraw, Galium aparine); assay: Test A postemergence, galium; conditions: 0 to 100 scale
In short: as §1

[19] = tested on: foxtail, giant (Setaria faberii); assay: Test A preemergence, giant foxtail; conditions: 0 to 100 scale; for Foxtail, Giant plant response rating: 0 is no effect, 100 is complete control
In short: as §1

[20] = tested on: ducksalad (Heteranthera limosa); assay: Test B flooded paddy test, ducksalad; conditions: Flood, 250 g ai/ha, applied to paddy water, 2-leaf stage, visual evaluation after 13 to 15 d
In short: as §2

[21] = 125 g ai/ha, 0 no effect, 100 complete control
[22] = 500 g ai/ha, 0 is no effect, 100 is complete control

Structure (SMILES): CC[C@H](Nc1ncc(C(F)(F)F)c(N)n1)c1cc2ccc(F)cc2s1 [Compound 49]
- Plant response rating, Corn [1, 21]: 0
- Corn plant response rating [1, 22]: 0
- Plant response rating, Ragweed [2, 21]: 0
- Ragweed plant response rating [2, 22]: 0
- Plant response rating, Kochia [3, 21]: 0
- Kochia plant response rating [3, 22]: 0
- Ryegrass, Italian plant response rating ([4]; 125 g ai/ha): 0
- Ryegrass, Italian plant response rating ([4]; 500 g ai/ha): 0
- Plant response rating, Blackgrass [5, 21]: 0
- Blackgrass plant response rating [5, 22]: 0
- Plant response rating, Sedge, Umbrella (0 to 100 scale, 0 is no effect, 100 is complete control) [6]: 0
- Plant response rating, Rice (0 to 100 scale, 0 is no effect, 100 is complete control) [7]: 0
- Pigweed plant response rating ([8]; 125 g ai/ha): 0
- Pigweed plant response rating ([8]; 500 g ai/ha): 0
- Plant response rating, Pigweed [9, 21]: 0
- Pigweed plant response rating [9, 22]: 50
- Plant response rating, Wheat [10, 21]: 0
- Wheat plant response rating [10, 22]: 0
- Plant response rating, Foxtail, Giant [11, 21]: 0
- Foxtail, Giant plant response rating [11, 22]: 10
- Ragweed plant response rating ([12]; 125 g ai/ha): 0
- Ragweed plant response rating ([12]; 500 g ai/ha): 0
- Kochia plant response rating ([13]; 125 g ai/ha): 0
- Kochia plant response rating ([13]; 500 g ai/ha): 0
- Plant response rating, Ryegrass, Italian [14, 21]: 0
- Ryegrass, Italian plant response rating [14, 22]: 0
- Plant response rating, Barnyardgrass [15, 21]: 0
- Barnyardgrass plant response rating [15, 22]: 0
- Plant response rating, Barnyardgrass (0 to 100 scale, 0 is no effect, 100 is complete control) [16]: 0
- Barnyardgrass plant response rating ([17]; 125 g ai/ha): 0
- Barnyardgrass plant response rating ([17]; 500 g ai/ha): 0
- Plant response rating, Galium [18, 21]: 0
- Galium plant response rating [18, 22]: 0
- Foxtail, Giant plant response rating ([19]; 125 g ai/ha): 0
- Foxtail, Giant plant response rating ([19]; 500 g ai/ha): 0
- Plant response rating, Ducksalad (0 to 100 scale, 0 is no effect, 100 is complete control) [20]: 0

Structure (SMILES): Cc1ccc2cc([C@@H](C)Nc3ncc(C(F)(F)F)c(N)n3)oc2c1 [Compound 14]
- Plant response rating, Corn ([1]; 125 g ai/ha): 10
- Plant response rating, Corn ([1]; 500 g ai/ha): 10
- Plant response rating, Ragweed ([2]; 125 g ai/ha): 0
- Plant response rating, Ragweed ([2]; 500 g ai/ha): 70
- Plant response rating, Kochia ([3]; 125 g ai/ha): 90
- Plant response rating, Kochia ([3]; 500 g ai/ha): 90
- Plant response rating, Ryegrass, Italian ([4]; 125 g ai/ha): 0
- Plant response rating, Ryegrass, Italian ([4]; 500 g ai/ha): 60
- Plant response rating, Blackgrass ([5]; 125 g ai/ha): 30
- Plant response rating, Blackgrass ([5]; 500 g ai/ha): 30
- Plant response rating, Sedge, Umbrella (0 to 100 scale, 0 is no effect, 100 is complete control) [6]: 0
- Plant response rating, Rice (0 to 100 scale, 0 is no effect, 100 is complete control) [7]: 0
- Plant response rating, Pigweed ([8]; 125 g ai/ha): 90
- Plant response rating, Pigweed ([8]; 500 g ai/ha): 100
- Plant response rating, Pigweed ([9]; 125 g ai/ha): 90
- Plant response rating, Pigweed ([9]; 500 g ai/ha): 90
- Plant response rating, Wheat ([10]; 125 g ai/ha): 0
- Plant response rating, Wheat ([10]; 500 g ai/ha): 0
- Plant response rating, Foxtail, Giant ([11]; 125 g ai/ha): 10
- Plant response rating, Foxtail, Giant ([11]; 500 g ai/ha): 90
- Plant response rating, Ragweed ([12]; 125 g ai/ha): 100
- Plant response rating, Ragweed ([12]; 500 g ai/ha): 100
- Plant response rating, Kochia ([13]; 125 g ai/ha): 60
- Plant response rating, Kochia ([13]; 500 g ai/ha): 90
- Plant response rating, Ryegrass, Italian ([14]; 125 g ai/ha): 0
- Plant response rating, Ryegrass, Italian ([14]; 500 g ai/ha): 0
- Plant response rating, Barnyardgrass ([15]; 125 g ai/ha): 10
- Plant response rating, Barnyardgrass ([15]; 500 g ai/ha): 40
- Plant response rating, Barnyardgrass (0 to 100 scale, 0 is no effect, 100 is complete control) [16]: 0
- Plant response rating, Barnyardgrass ([17]; 125 g ai/ha): 90
- Plant response rating, Barnyardgrass ([17]; 500 g ai/ha): 100
- Plant response rating, Galium ([18]; 125 g ai/ha): 80
- Plant response rating, Galium ([18]; 500 g ai/ha): 80
- Plant response rating, Foxtail, Giant ([19]; 125 g ai/ha): 90
- Plant response rating, Foxtail, Giant ([19]; 500 g ai/ha): 100
- Plant response rating, Ducksalad (0 to 100 scale, 0 is no effect, 100 is complete control) [20]: 0
